According to ChEMBL document CHEMBL1137865, “Modeling the binding affinities of beta-secretase inhibitors: application to subsite specificity” (Bioorg Med Chem Lett, 2004):
Starred links: 1 amine or outer side, 2 acyl side, 3 side chain; linkers in the order of their positions; H or OH if unused. Non-standard residues stand in square brackets, D forms with d. Residues, ends and D or L forms follow the SMILES beside them. *: point of attachment. LeuΨ(S-CHOHCH2)Ala = CC(C)C[C@H](N[*:1])[C@@H](O)C[C@@H](C)C(=O)[*:2]; X1 = O=C(O)CC[C@H](N*)C(=O)C[C@@H](Cc1ccccc1)C(=O)O

biological target: Beta-secretase 1 (Homo sapiens, UniProt P56817); experiment: Binding affinity against Beta-secretase
Sequence (P56817 whole entry): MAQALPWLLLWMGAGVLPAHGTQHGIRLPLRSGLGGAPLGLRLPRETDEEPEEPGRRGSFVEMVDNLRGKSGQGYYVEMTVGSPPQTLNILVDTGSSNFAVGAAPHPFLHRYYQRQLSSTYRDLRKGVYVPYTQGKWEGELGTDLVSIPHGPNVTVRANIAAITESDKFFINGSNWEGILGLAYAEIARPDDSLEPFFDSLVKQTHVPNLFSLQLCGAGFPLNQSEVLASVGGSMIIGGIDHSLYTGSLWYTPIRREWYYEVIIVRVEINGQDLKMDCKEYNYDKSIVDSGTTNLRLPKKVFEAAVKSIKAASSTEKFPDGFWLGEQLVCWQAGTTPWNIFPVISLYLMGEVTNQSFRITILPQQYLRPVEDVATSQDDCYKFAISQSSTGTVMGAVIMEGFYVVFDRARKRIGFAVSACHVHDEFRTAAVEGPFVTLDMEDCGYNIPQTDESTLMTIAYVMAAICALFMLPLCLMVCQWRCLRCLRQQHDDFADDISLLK

Point of comparison: CC(C)C[C@H](NCC(=O)[C@H](CC(N)=O)NC(=O)OC(C)(C)C)C(O)CC(C)C(=O)NC(C(=O)NCc1ccccc1)C(C)C (some centres undefined), Ki 3130 nM. Against it:
- CC(C)C[C@H](NC(=O)[C@@H](N)CCC(=O)O)C(=O)N[C@@H](CC(=O)O)C(=O)N[C@@H](CC(C)C)[C@@H](O)C[C@@H](C)C(=O)N[C@H](C(=O)N[C@@H](CCC(=O)O)C(=O)C[C@@H](Cc1ccccc1)C(=O)O)C(C)C (H-ELD[LeuΨ(S-CHOHCH2)Ala]V-X1) — 9800-fold lower, 0.32 nM
- CC(C)C[C@H](NCC(=O)[C@H](CC(N)=O)NC(=O)OC(C)(C)C)C(O)CC(C)C(=O)NC(C)C(=O)NCc1ccccc1 (some centres undefined) — 7.2-fold higher, 22400 nM
- CC(C)C[C@H](NCC(=O)[C@H](CS(C)(=O)=O)NC(=O)OC(C)(C)C)C(O)CC(C)C(=O)NC(C(=O)NCc1ccccc1)C(C)C (some centres undefined) — 2.8-fold lower, 1130 nM

Point of comparison: CCCN(CCC)C(=O)c1cccc(C(=O)N[C@@H](Cc2cc(F)cc(F)c2)[C@@H](O)C[C@@H](CC)C(=O)NC[C@H]2CC[C@H](C(=O)O)CC2)c1, IC50 50 nM. Against it:
- CCCN(CCC)C(=O)c1cccc(C(=O)N[C@@H](Cc2cc(F)cc(F)c2)[C@@H](O)C[C@@H](CC)C(=O)NCCCCC(=O)O)c1 — 8-fold higher, 400 nM
- CCCN(CCC)C(=O)c1cccc(C(=O)N[C@@H](Cc2cc(F)cc(F)c2)[C@@H](O)C[C@@H](CC)C(=O)NCCC(=O)O)c1 — 56-fold higher, 2800 nM
- CCCN(CCC)C(=O)c1cccc(C(=O)N[C@@H](Cc2cc(F)cc(F)c2)[C@@H](O)C[C@@H](CC)C(=O)NCc2ccccc2)c1 — 28-fold higher, 1400 nM
- CCCN(CCC)C(=O)c1cccc(C(=O)N[C@@H](Cc2cc(F)cc(F)c2)[C@@H](O)C[C@@H](CC)C(=O)N[C@H]2C[C@@H](OC)C[C@@H](OC)C2)c1 — 130-fold higher, 6600 nM
